Structures can show the parent of a compound that is named as a salt.
Key:
[1] = tested on: hepatic cirrhosis induced by N-nitrosodiethylamine, nodules on liver surface; test: Effect on hepatic cirrhosis (2): nodule formation on the liver surface; type: in vivo, Sprague-Dawley rats
Protocol: (§1) Groups Sprague-Dawley male rats (7 weeks old; Nippon SLC) were purchased and kept for five days before being used in the test. Each group consisted of 10 rats, and four groups were used in the test.
(§2) An N-nitrosodiethylamine solution (5.32 ml; which corresponds to 5 g due to the specific gravity of 0.94) was measured into a measuring cylinder by use of a glass pipette, and physiological saline was added to make the total volume 100 ml. Subsequently, the solution was sonicated for 2 minutes to prepare a uniform N-nitrosodiethylamine solution (50 mg/ml). The solution was prepared just before use. N-nitrosodiethylamine was intraperitoneally administered to each rat at a dose of 100 mg/2 ml/kg once in the morning on days 0, 7, 14, 21, and 28 (day 0: the first day of administration of N-nitrosodiethylamine).
An ethanolamine hydrochloric acid salt was measured and dissolved in a certain amount of distilled water for injection use. The solution was suitably diluted and administered to each rat by oral route by use of an oral probe for rats.
The liver was visually observed, and then a portion thereof was fixed with 10% neutral formalin buffer. Portions of fixed samples were frozen and stored at -80° C. in a tightly-sealed container.
The formation of nodules was evaluated by five rankings.

[2] = tested on: serum transaminase GPT; test: Serum GPT in mice with liver disorder induced by carbon tetrachloride; type: in vivo, ddY mice
Protocol: (§3) Carbon tetrachloride (5 ml, Wako Pure Chemicals) was put in a glass vial, and Panasate 800 (45 ml, Nippon Yushi Chemicals Co, Ltd.) was added to prepare a 10% (v/v) solution.
(§4) Subsequently, the total amount was made to 50 ml. An aliquot of 2 ml was diluted in 38 ml of physiological saline.
(§5) One group consisted of 10 mice. For 24 hours prior to the administration of tetrachloride, each mouse was fasted by being fed water only. 10% carbon tetrachloride/Panasate solution was intraperitoneally administered to each mice at a dose of 1 ml/kg.
(§6) Blood was collected from the abdominal aorta by use of 1-ml disposable syringes (Terumo). The blood, dispensed into 1.5 ml Eppendorf tubes, was subjected to centrifugal separation at 5,000 rpm for 10 minutes to thereby obtain serum. The activity of transaminase (GOT, GPT) in the serum thus obtained was measured. The measurement was performed by use of a Cobas Mira System (Baxter).

[3] = tested on: hydroxyproline, fibrosis of the liver; test: Effect on hepatic cirrhosis (2): hydroxyproline in liver as index of fibrosis; type: in vivo, Sprague-Dawley rats
Protocol: as §1, §2
An ethanolamine hydrochloric acid salt was measured and dissolved in a certain amount of distilled water for injection use. […]
The frozen liver tissue (1 g) was weighed and homogenized in a Teflon homogenizer together with pure water (3 ml). […] As an index of fibrosis, the amount of hydroxyproline was used, and the hydroxyproline content per g of liver tissue was calculated for comparison.
(3) The amount of hydroxyproline, serving as an index of fibrosis of the liver, was determined by an amino acid analysis.

[4] = tested on: liver necrosis; test: Histopathological profile of liver in mice with carbon tetrachloride liver disorder; type: in vivo, ddY mice; settings: ethanolamine administration
Protocol: as §3, §4, §5

[5] = tested on: rat hepatocyte; test: 3H-TdR uptake by rat hepatocytes in primary culture (hepatocyte growth promoting activity); settings: in the presence of either the high molecular weight factor extract or EGF
Protocol: In separation and identification of the low molecular weight factor showing hepatocyte proliferation promoting activity derived from epithelial mucosa of the bovine small intestine, the rat hepatocyte system in primary culture was used. To this culture system, a fraction of a crude extract of bovine small intestine epithelial mucosa in the course of purification was added in the presence of high molecular weight factor extract (1%) and insulin (10 μg/ml) or in the presence of EGF (20 ng/ml) and insulin (10 μg/ml), to thereby establish an assay system for measuring the uptake of ^3 H-TdR into DNA of rat hepatocyte nuclei.
Fractions each amounting 15 ml was added to the above-mentioned assay system and the uptake of ^3 H-TdR was measured.

[6] = tested on: serum transaminase GOT; test: Serum GOT in mice with liver disorder induced by carbon tetrachloride; type: in vivo, ddY mice
Protocol: as §3, §4, §5, §6

[7] = tested on: hepatic cirrhosis induced by N-nitrosodiethylamine, clear cell foci; test: Effect on hepatic cirrhosis (2): formation of clear cell foci; settings: N-nitrosodiethylamine 100 mg/kg i.p., days 0, 7, 14, 21, 28
[8] = tested on: mice; test: Acute toxicity test; type: in vivo, mice (ICR); settings: i.p.
Protocol: The pH was adjusted to 7.0 by use of 5 N NaOH. Solutions having lower concentrations were prepared by dilution with physiological saline. Each solution (10 μl) was intraperitoneally injected to mice (ICR, female, 6-weeks old, 29 g), and the survival ratio was obtained.

[9] = tested on: hepatocytes, tubular epithelial cells, dermal keratinocytes and melanocytes, type II epithelial cells of pulmonary alveolus, epithelial cells of gastric mucosa; settings: cited from earlier work
[10] = tested on: cancer cells; settings: cited from earlier work
[11] = N-nitrosodiethylamine 100 mg/kg i.p., days 0, 7, 14, 21, 28

Molecule: NCCO [ethanolamine, monoethanolamine]
- formation of nodules, difference vs N-nitrosodiethylamine group ([1]; 15 mg/kg and 50 mg/kg, Dunnett's test): statistically significant
- prevention of hepatic cirrhosis induced by N-nitrosodiethylamine ([1]; oral administration): can be prevented by oral administration of ethanolamine
- formation of nodules, dose dependence ([1]; oral, 15 and 50 mg/kg, visual observation): the higher the dose of ethanolamine, the less significant the formation of nodules
- GPT level ([2]; intraperitoneal, 2.8 mg/kg): significantly decreased
- GPT level ([2]; peroral, 16 mg/kg): significantly decreased
- amount of hydroxyproline, dose dependence ([3]; oral, 15 and 50 mg/kg): the higher the dose of ethanolamine, the lower the amount of hydroxyproline
- area of necrosis in histopathological profile of the liver [4]: a tendency that the area of necrosis was reduced
- 3H-TdR uptake, growth-stimulating effect [5]: synergistic growth-stimulating effects
- GOT level ([6]; intraperitoneal, 2.8 mg/kg): significantly decreased
- GOT level ([6]; peroral, 16 mg/kg): significantly decreased

Molecule: CCN(CC)N=O [N-nitrosodiethylamine, reference compound]
- nodules in the surface of the liver [1, 11]: presented clear nodules in the surface of the liver
- hydroxyproline level [3, 11]: significantly elevated
- formation of clear cell foci [7]: considerable formation of clear cell foci

Molecule: NCCO [EA-HCl, monoethanolamine-HCl]
- Survival, 1 day after admin. ([8]; 0.5 g/kg (calculated as EA)): 4/4
- Survival, 6 days after admin. ([8]; 0.5 g/kg (calculated as EA)): 4/4
- Survival, administration (day) ([8]; 0.5 g/kg (calculated as EA)): 4/4
- Survival, 1 day after admin. ([8]; 1.25 g/kg (calculated as EA)): 3/3
- Survival, 6 days after admin. ([8]; 1.25 g/kg (calculated as EA)): 3/3
- Survival, administration (day) ([8]; 1.25 g/kg (calculated as EA)): 3/3
- Survival, administration (day) ([8]; 2.5 g/kg (calculated as EA)): 0/4
- time to death ([8]; 5.0 and 2.5 g/kg): ≤ 30 min
- Survival, administration (day) ([8]; 5.0 g/kg (calculated as EA)): 0/4
- survival at six days ([8]; doses equal to or less than 1.25 g/kg): alive when six days had passed

Molecule: HGF: hepatocyte growth factor (HGF)
- mitogenic activity [9]: potent mitogen
- motogen function ([9]; motion of cells): function as a motogen to stimulate motion of cells
- proliferation of cancer cells [10]: action to suppress proliferation of cancer cells

— patent US5972914A, “Remedies for liver diseases” (Meiji Milk Products Co., Ltd., priority 1998, dated 1999)
